Series [1] addresses T1, NLRP3 (Homo sapiens, UniProt Q96P20). Kind of series: Human whole blood IL1β release assay (LPS + nigericin, AlphaLisa IL-1β). Details: Plate out 80 μl of whole blood containing 1βg/ml of LPS in 96-well, clear bottom cell culture plate; from tissue; host or cells: human whole blood from healthy donors, LPS-primed and nigericin-stimulated. As to conditions: NLRP3 inhibitory activity in human whole blood, IL-1β release, 10 μM nigericin, read-out: HWB IC50. In kind it is cell-based. On the procedure: For systemic delivery, the ability to inhibit NLRP3 when the compounds are present within the bloodstream is of great importance. For this reason, the NLRP3 inhibitory activity of a number of compounds in human whole blood was investigated in accordance with the following protocol.
Human whole blood in Li-heparin tubes was obtained from healthy donors from a volunteer donor panel. • 1. Plate out 80 μl of whole blood containing 1βg/ml of LPS in 96-well, clear bottom cell culture plate (Corning #3585) • 2. Add 10 μl compound (8 points half-log dilution with 10 μM top dose) or vehicle (DMSO 0.1% FAC) to the appropriate wells • 3. Incubate for 3 hrs at 37° C., 5% CO2 • 4. Add 10 μl Nigericin (Sigma # N7143) (10 μM FAC) to all wells • 5. Incubate for 1 hr at 37° C., 5% CO2 • 6. At the end of the incubation period, spin plates at 300×g for 5 mins to pellet cells and remove 20 μl of supernatant and add to 96-well v-bottom plates for IL-1β analysis (note: these plates containing the supernatants can be stored at −80° C. to be analysed at a later date) • 7. IL-1β was measured according to the manufacturer protocol (Perkin Elmer-AlphaLisa IL-1 Kit AL220F-5000) • 8. IC50 data is fitted to a non-linear regression equation (log inhibitor vs response-variable slope 4-parameters)
On the technique in general: Alpha assays give light when donor and acceptor beads are brought close together.

Series [2] is described as follows: PK protocol: pharmacokinetic parameters in male Sprague Dawley rats (intravenous or oral). In kind it is in vivo. As to conditions: plasma, rat; for Vd: read-out: Vdss. The protocol:
Pharmacokinetic parameters were determined in male Sprague Dawley rats (Charles River, UK, 250-350 g; or Vital River Laboratory Animal Technology Co Ltd, Beijing, China, 7-9 weeks old). Animals were individually housed during the study and maintained under a 12 h light/dark cycle.
For intravenous administration, compounds were formulated as a solution in water or DMSO:PBS [10:90] in 2 mL/kg dosing volume and administered via tail vein. For oral administration, compounds were formulated as a solution in DMSO:water [10:90] in 5 mL/kg dosing volume and administered orally.
Serial blood samples (about 120-300 μL) were taken from each animal at each of 8 time-points post dose (0.083, 0.25, 0.5, 1, 2, 4, 8 and 24 h) or at each of 12 time-points post dose (0.03, 0.1, 0.17, 0.25, 0.5, 1, 2, 4, 6, 8, 12 and 24 h) or pre-dose and at each of 9 time-points post dose (0.25, 0.5, 1, 2, 4, 6, 8, 12 and 24 h). Samples were held on ice for no longer than 30 minutes before centrifugation (10,000 rpm (8,385 g) for 3 minutes; or 5,696 rpm (3,000 g) for 15 minutes) for plasma generation. Plasma was frozen on dry ice prior to bioanalysis. PK parameters were generated from LC-MS/MS data using Dotmatics or Phoenix WinNonlin 6.3 software.

Series [3] has as its target T1, NLRP3. Nature of the series: THP-1 cells pyroptosis assay (LPS + nigericin, resazurin readout). In kind it is cell-based. Details: Seed THP-1 cells (25,000 cells/well) containing 1.0 μg/ml LPS in 40 μl of RPMI medium; host or cells: THP-1 cells, LPS-primed and nigericin-stimulated. The note with it: NLRP3 inhibitory activity in THP-1 cells, 1.0 μg/ml LPS, 5 μM nigericin. An excerpt: It is well established that the activation of NLRP3 leads to cell pyroptosis and this feature plays an important part in the manifestation of clinical disease (Yan-gang Liu et al., Cell Death & Disease, 2017, 8(2), e2579; Alexander Wree et al., Hepatology, 2014, 59(3), 898-910; Alex Baldwin et al., Journal of Medicinal Chemistry, 2016, 59(5), 1691-1710; Ema Ozaki et al., Journal of Inflammation Research, 2015, 8, 15-27; Zhen Xie & Gang Zhao, Neuroimmunology Neuroinflammation, 2014, 1(2), 60-65; Mattia Cocco et al., Journal of Medicinal Chemistry, 2014, 57(24), 10366-10382; T. Satoh et al., Cell Death & Disease, 2013, 4, e644). Therefore, it is anticipated that inhibitors of NLRP3 will block pyroptosis, as well as the release of pro-inflammatory cytokines (e.g. IL-1β) from the cell. THP-1 cells (ATCC # TIB-202) were grown in RPMI containing L-glutamine (Gibco #11835) supplemented with 1 mM sodium pyruvate (Sigma # S8636) and penicillin (100 units/ml)/streptomycin (0.1 mg/ml) (Sigma # P4333) in 10% Fetal Bovine Serum (FBS) (Sigma # F0804). The cells were routinely passaged and grown to confluency (˜10^6 cells/ml). On the day of the experiment, THP-1 cells were harvested and resuspended into RPMI medium (without FBS). The cells were then counted and viability (>90%) checked by Trypan blue (Sigma # T8154). Appropriate dilutions were made to give a concentration of 625,000 cells/ml. To this diluted cell solution was added LPS (Sigma # L4524) to give a […] Final Assay Concentration (FAC). 40 μl of the final preparation was aliquoted into each well of a 96-well plate. The plate thus prepared was used for compound screening. The following method step-by-step assay was followed for compound screening. • 1. Seed THP-1 cells (25,000 cells/well) containing 1.0 μg/ml LPS in 40 μl of RPMI medium (without FBS) in 96-well, black walled, clear bottom cell culture plates coated with poly-D-lysine (VWR #734-0317) • 2. Add 5 μl compound (8 points half-log dilution, with 10 μM top dose) or vehicle (DMSO 0.1% FAC) to the appropriate wells • 3. […] Add 5 μl nigericin (Sigma # N7143) (FAC 5 μM) to all wells • 5. […] At the end of the incubation period, spin plates at 300×g for 3 mins and remove supernatant • 7. Then add 50 μl of resazurin (Sigma # R7017) (FAC 100 μM resazurin in RPMI medium without FBS) and incubate plates for a further 1-2 hrs at 37° C. and 5% CO2 • 8. Plates were read in an Envision reader at Ex 560 nm and Em 590 nm • 9. IC50 data is fitted to a non-linear regression equation (log inhibitor vs response-variable slope 4-parameters) The results of the pyroptosis assay performed are summarised in Table 1 below as THP IC50.

[4] abbreviates: intravenous administration, 1 mg/kg.

pIC50: −log10 of the molar value. Structures can show the parent of a compound that is named as a salt.

One may read the pIC50 as the negative decadic logarithm of the IC50, by convention in mol/L. The term AUC denotes concentration integrated over time. Read a low AUC as less exposure. A word on the half-life: it is the time in which the quantity being followed falls by half. In general, CL/F refers to the apparent clearance, not corrected for the fraction that reaches the circulation. A word on the Cmax: it is the peak of the concentration-time curve. Usually Tmax stands for the time at which the peak concentration occurs. Usually bioavailability stands for the share of a dose that reaches the circulation, judged against a reference dose that is usually intravenous. Read a high bioavailability as much systemic uptake.

T1 sequence (Q96P20 whole entry): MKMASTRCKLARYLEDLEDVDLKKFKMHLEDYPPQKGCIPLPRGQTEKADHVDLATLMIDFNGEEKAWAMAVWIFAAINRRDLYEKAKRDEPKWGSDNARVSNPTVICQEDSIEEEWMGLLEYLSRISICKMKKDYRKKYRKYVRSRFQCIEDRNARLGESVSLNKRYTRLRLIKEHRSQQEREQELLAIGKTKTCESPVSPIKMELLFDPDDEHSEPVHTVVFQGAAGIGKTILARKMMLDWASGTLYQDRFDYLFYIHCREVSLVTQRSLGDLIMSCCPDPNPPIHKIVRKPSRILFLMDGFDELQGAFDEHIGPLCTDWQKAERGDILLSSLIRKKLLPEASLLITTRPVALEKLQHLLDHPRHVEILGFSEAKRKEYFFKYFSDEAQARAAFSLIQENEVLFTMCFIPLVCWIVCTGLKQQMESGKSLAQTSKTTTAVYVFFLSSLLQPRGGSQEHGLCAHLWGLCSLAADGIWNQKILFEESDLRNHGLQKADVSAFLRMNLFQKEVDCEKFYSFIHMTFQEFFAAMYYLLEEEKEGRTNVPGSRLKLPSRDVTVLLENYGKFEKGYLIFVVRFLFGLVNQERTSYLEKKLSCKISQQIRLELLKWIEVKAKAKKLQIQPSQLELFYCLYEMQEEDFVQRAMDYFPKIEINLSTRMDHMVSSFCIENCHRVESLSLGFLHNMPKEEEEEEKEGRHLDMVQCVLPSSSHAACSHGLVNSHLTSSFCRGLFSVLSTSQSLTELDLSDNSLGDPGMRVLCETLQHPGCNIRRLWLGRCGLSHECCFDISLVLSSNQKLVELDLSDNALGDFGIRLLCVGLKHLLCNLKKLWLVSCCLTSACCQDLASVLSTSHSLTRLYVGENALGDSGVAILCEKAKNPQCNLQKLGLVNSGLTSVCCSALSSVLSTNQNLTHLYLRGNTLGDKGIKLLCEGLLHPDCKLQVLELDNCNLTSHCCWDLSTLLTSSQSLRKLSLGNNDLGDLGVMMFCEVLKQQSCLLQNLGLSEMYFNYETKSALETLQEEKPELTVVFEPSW

Turning to `CCN(CC)CCCS(=O)(=O)NC(=O)Nc1c2c(cc3c1CCC3)CCC2` [Example 3, 3-(Diethylamino)-N-((1,2,3,5,6,7-hexahydro-s-indacen-4-yl)carbamoyl)propane-1-sulfonamide, potassium salt], the pIC50 in series [1] was not below 6.00. Also, in series [2] (setting [4]), the AUC was 1180 ng·h/mL, the clearance is 14.2 mL/min/kg, the half-life is 1.5 h and the Vd came out at 0.79 L/kg. Moreover, in series [2] (oral administration, 3 mg/kg), the AUC came to 2270 ng·h/mL, the apparent clearance CL/F turned out to be 22.6 mL/min/kg, the highest level (Cmax) was 819 ng/mL and the Tmax is 0.42 h. In series [2] (oral administration, 3 mg/kg), this molecule showed a bioavailability of 64.1% and a half-life of 1.8 h.
For the molecule `CN(C)CCCS(=O)(=O)NC(=O)Nc1c2c(cc3c1CCC3)CCC2` [Example 8, 3-(Dimethylamino)-N-((1,2,3,5,6,7-hexahydro-s-indacen-4-yl)carbamoyl)propane-1-sulfonamide, potassium salt], the negative logarithm of the IC50 (pIC50) in series [1] is not below 6.00. Also, in series [2] (setting [4]), the AUC was found to be 2350 ng·h/mL, the clearance was 7.1 mL/min/kg, the half-life is 1.1 h and the Vd stood at 0.49 L/kg.
The corresponding values for `O=C(Nc1c2c(cc3c1CCC3)CCC2)NS(=O)(=O)CCN1CCC1` [Example 29, 2-(Azetidin-1-yl)-N-((1,2,3,5,6,7-hexahydro-s-indacen-4-yl)carbamoyl)ethane-1-sulfonamide, Potassium Salt] are not below 6.00, 2780 ng·h/mL, 6 mL/min/kg, 1.3 h and 0.53 L/kg.
The corresponding values for `CCN(CC)CCCS(=O)(=O)NC(=O)Nc1c(-c2cccnc2)cc(F)cc1C(C)C` [Example 37, 3-(Diethylamino)-N-((4-fluoro-2-isopropyl-6-(pyridin-3-yl)phenyl)carbamoyl)propane-1-sulfonamide] are not below 6.00, 591 ng·h/mL, 28.2 mL/min/kg, 0.9 h and 0.55 L/kg.
In the case of `CC(C)N1CC2(COC(CS(=O)(=O)NC(=O)Nc3c4c(cc5c3CCC5)CCC4)C2)C1` (stereo not drawn) [Example 77, N-((1,2,3,5,6,7-Hexahydro-s-indacen-4-yl)carbamoyl)-1-(2-isopropyl-6-oxa-2-azaspiro[3.4]octan-7-yl)methanesulfonamide, Potassium Salt], the results for the pIC50 in series [3] and in series [1] were 5.00 to 5.70 and not below 5.12, respectively.
On to `CN(C)CCCCS(=O)(=O)NC(=O)Nc1c2c(cc3c1CCC3)CCC2` [Example 82, 4-(Dimethylamino)-N-((1,2,3,5,6,7-hexahydro-s-indacen-4-yl)carbamoyl)butane-1-sulfonamide], for which the values for the negative-log IC50 (pIC50) in series [3] and in series [1] were 5.70 to 5.80 and not below 5.30, respectively.
Consider `O=C(Nc1c2c(cc3c1CCC3)CCC2)NS(=O)(=O)CCCCN1CCC1` [Example 86, 4-(Azetidin-1-yl)-N-((1,2,3,5,6,7-hexahydro-s-indacen-4-yl)carbamoyl)butane-1-sulfonamide], for which, in series [3], the negative-log IC50 (pIC50) was 5.00 to 5.70.
The same measure, in the same setting: in the case of `O=C(Nc1c2c(cc3c1CCC3)CCC2)NS(=O)(=O)C1(CN2CCC2)CC1` [Example 87, 1-(Azetidin-1-ylmethyl)-N-((1,2,3,5,6,7-hexahydro-s-indacen-4-yl)carbamoyl)cyclopropane-1-sulfonamide] it was 5.70 to 5.80; in that of `COCCC(=O)N(C)CCCS(=O)(=O)NC(=O)Nc1c2c(cc3c1CCC3)CCC2` [Example 94, N-(3-(N-((1,2,3,5,6,7-Hexahydro-s-indacen-4-yl)carbamoyl)sulfamoyl)propyl)-3-methoxy-N-methylpropanamide], 5.70 to 5.80; in that of `CC(C)c1cc(F)cc(C(C)C)c1NC(=O)NS(=O)(=O)CCCN(C)C` [Example 101, 3-(Dimethylamino)-N-((4-fluoro-2,6-diisopropylphenyl)carbamoyl)propane-1-sulfonamide], 5.00 to 5.70.
On the same count and under the same terms, in the case of `CC(C)c1cc(Cl)cc(C(C)C)c1NC(=O)NS(=O)(=O)CCCN(C)C` [Example 108, 3-(Dimethylamino)-N-((4-chloro-2,6-diisopropylphenyl)carbamoyl)propane-1-sulfonamide] it was 5.00 to 5.70; in that of `CC(C)c1cc(F)cc(-c2ccnc(C#N)c2)c1NC(=O)NS(=O)(=O)Cc1cccnc1` [Example 112, N-((2-(2-Cyanopyridin-4-yl)-4-fluoro-6-isopropylphenyl)carbamoyl)-1-(pyridin-3-yl)methanesulfonamide], 5.00 to 5.70.

Source of the values: patent US20200331850A1, “NOVEL SULFONAMIDE CARBOXAMIDE COMPOUNDS” (Inflazome Limited, priority 2017, published 2020).
